Data as given in US12674135B2, “Three-dimensional culture of immortalized skin cells on the superficial layer of which a stratum corneum is formed, method for producing said three-dimensional culture, and method for evaluating test substance using said three-dimensional culture” (National Institute of Advanced Industrial Science and …, priority 2020, dated 2026).

Experiments:
[1] = system: IL-8 promoter (red light-emitting luciferase) in three-dimensional culture of HaCaT
From the text: (§1) The thus obtained HaCaT was used to obtain a three-dimensional culture by the same method as in Example 1. The three-dimensional culture was a three-dimensional culture in which a Cellbed was used as a plate-like substrate as in Example 1, to which a HaCaT culture layered product was adhered, and the superficial layer of the three-dimensional culture was the stratum corneum.
(§2) A cell culture insert (Falcon Culture Insert #353095) comprising a clear, colorless, PET membrane with a 0.4 μm pore size bottom for 24 wells was inserted into the wells of a 24-well plate for cell culture with black walls and a colorless bottom, the three-dimensional culture was placed in the bottom of the culture insert with the cells on top, and 0.8 mL of KGM-gold containing 0.2 mM luciferin potassium salt was placed in the well outside the culture insert. For sensitization evaluation, a test substance was loaded from the top of the three-dimensional culture inside the insert. […] As a solvent control, 30 μL of KGM medium was added from the top of the three-dimensional culture. Plastic paraffin film was sprinkled around this well plate and the luminescence was measured for 0 to 72 hours with a real-time luminescence monitoring system for cultured cells, Kronos HT (manufactured by ATTO Corporation). Measurements were taken every minute for 10 seconds for each color and continued for 0 to 72 hours. […]

[2] = system: IL-8 promoter (red light-emitting luciferase) in three-dimensional culture of HaCaT; experiment: Skin sensitization evaluation: test substance loaded from the top of the three-dimensional HaCaT culture, multicolor luciferase luminescence (IL-8 promoter red / UBC promoter green); settings: range of from 200 µM to 2 mM in KGM medium, 30 μL loaded only from the top, up to 72 hours, FIG. 10
From the text: as §1, §2

[3] = system: IL-8 promoter (red light-emitting luciferase) in three-dimensional culture of HaCaT; settings: 20 μM, 100 μM and 200 μM, loaded from bottom and top surfaces, 0 to 72 hours, FIG. 15
From the text: as §1
A cell culture insert (Falcon Culture Insert #353095) comprising a clear, colorless, PET membrane with a 0.4 μm pore size bottom for 24 wells was inserted into the wells of a 24-well plate for cell culture with black walls and a colorless bottom, the three-dimensional culture obtained in Example 3 was placed in the bottom of the culture insert with the cells on top. […] 0.8 mL of this medium was placed on the outside of the culture insert, and then 30 μL was loaded from the top of the three-dimensional culture. […]
Plastic paraffin film was sprinkled around this well plate and the luminescence was measured for 0 to 72 hours with a real-time luminescence monitoring system for cultured cells, Kronos HT (manufactured by ATTO Corporation). The bioluminescence intensity of each luciferase was measured on these three-dimensional cultures as in Example 5.

| Structure (SMILES) | emission intensity, concentration dependence [1] | relative bioluminescence intensity of red light-emitting luciferase (IL-8 promoter) to green light-emitting luciferase (ubiquitin C promoter) [2] | bioluminescence intensity ratio of red light-emitting luciferase (IL-8 promoter) to green light-emitting luciferase (ubiquitin C promoter) [3] |
| --- | --- | --- | --- |
| CCCCN(CCCC)c1ccccc1 [DA, dibutylaniline] | concentration dependence was observed |  |  |
| Oc1ccc(O)cc1 [HQ, hydroquinone] |  | concentration-dependent increase | increased in a concentration-dependent manner |
